Laboratory results reported in ChEMBL document CHEMBL1201862, “PubChem BioAssay data set” (2004).
Active and inactive are the calls of the source.

What was measured:
[1] = target: G-protein coupled receptor 55 (Homo sapiens, UniProt Q9Y2T6); assay: selective activators of receptor GPR55 – imaging, U2OS cells, beta-arrestin-GFP redistribution, primary screen (AID 1961); type: functional
[2] = target: T1, Replicative DNA helicase DnaB (Mycobacterium tuberculosis, UniProt P9WMR3); assay: DnaB intein splicing inhibitors, dose response, biochemical, cell-free fluorescence (AID 449749); type: functional
T1 sequence (P9WMR3 whole entry): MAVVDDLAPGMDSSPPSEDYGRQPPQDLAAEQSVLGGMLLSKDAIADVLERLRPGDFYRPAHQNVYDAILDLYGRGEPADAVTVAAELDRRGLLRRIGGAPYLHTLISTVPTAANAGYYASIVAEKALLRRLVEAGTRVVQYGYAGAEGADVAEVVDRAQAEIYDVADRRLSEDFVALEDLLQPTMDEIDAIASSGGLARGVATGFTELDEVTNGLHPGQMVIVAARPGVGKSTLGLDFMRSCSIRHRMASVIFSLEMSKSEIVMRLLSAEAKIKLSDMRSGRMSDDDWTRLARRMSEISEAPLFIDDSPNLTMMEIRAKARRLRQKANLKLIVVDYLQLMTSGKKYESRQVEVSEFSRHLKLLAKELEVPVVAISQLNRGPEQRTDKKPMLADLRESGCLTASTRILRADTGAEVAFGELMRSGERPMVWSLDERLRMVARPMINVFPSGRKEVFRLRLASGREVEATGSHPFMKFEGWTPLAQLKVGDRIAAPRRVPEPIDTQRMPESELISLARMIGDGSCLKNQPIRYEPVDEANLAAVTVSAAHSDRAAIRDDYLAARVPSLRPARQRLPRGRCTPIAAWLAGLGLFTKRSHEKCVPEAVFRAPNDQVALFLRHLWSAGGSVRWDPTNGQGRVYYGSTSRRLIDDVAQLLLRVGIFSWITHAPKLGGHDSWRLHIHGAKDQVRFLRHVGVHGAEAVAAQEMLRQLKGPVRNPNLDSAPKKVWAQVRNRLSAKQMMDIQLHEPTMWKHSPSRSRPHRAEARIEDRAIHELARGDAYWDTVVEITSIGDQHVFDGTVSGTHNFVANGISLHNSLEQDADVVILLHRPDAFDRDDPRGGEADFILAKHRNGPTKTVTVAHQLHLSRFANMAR

[3] = target: T2, Protein RecA (Mycobacterium tuberculosis, UniProt P9WHJ3); assay: Fluorescence Cell-Free Homogeneous Dose Retest to Identify Inhibitors of RecA-Intein Splicing Activity. [Related pubchem assays (depositor defined):AID2097, AID2223, AID489010, AID492950]; type: functional
T2 sequence (P9WHJ3 whole entry): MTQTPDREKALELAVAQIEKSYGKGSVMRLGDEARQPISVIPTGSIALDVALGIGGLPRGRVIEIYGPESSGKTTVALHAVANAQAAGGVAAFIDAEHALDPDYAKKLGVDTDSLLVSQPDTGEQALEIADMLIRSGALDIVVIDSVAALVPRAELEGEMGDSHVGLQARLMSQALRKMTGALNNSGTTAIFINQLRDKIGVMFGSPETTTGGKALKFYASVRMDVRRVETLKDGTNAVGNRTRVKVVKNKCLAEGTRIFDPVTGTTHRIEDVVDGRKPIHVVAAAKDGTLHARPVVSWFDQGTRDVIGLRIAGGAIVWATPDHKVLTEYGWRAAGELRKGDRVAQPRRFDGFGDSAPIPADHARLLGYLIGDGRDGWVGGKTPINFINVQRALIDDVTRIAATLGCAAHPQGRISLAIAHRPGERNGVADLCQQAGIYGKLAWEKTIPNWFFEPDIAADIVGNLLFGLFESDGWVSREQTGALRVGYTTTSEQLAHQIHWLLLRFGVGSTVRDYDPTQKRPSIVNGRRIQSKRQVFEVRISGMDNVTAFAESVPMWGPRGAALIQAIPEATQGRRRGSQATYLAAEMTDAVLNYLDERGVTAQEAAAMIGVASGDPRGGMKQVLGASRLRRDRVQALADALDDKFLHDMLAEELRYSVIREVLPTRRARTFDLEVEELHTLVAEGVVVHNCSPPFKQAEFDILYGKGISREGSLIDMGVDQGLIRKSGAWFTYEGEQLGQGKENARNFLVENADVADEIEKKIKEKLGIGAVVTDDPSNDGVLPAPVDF

[4] = target: Trypsin (Sus scrofa, UniProt P00761); assay: trypsin protease activity blockade – biochemical, quenched peptide fluorescence, cherry-pick, selectivity assay for Rce1 protease inhibitor project, dose response (AID 488789)
[5] = test system: Vero; assay: cells; type: functional; conditions: Chlorocebus sabaeus
[6] = test system: Vero; assay: cells; type: functional, cell-based; conditions: Chlorocebus sabaeus
[7] = target: Melanin-concentrating hormone receptor 1 (Homo sapiens, UniProt Q99705); assay: Late-stage fluorescence-based counterscreen for antagonists of the G-protein coupled receptor 7 (GPR7): cell-based dose response assay to identify antagonists of the melanin-concentrating hormone receptor 1 (MCHR1). [Related pubchem assays (depositor defined):AID1861, AID1880, AID1952, AID2148, AID2251, AID2257, AID485339]; type: functional;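 further: stimulated with 30 nM MCH peptide agonist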
[8] = target: T3, Neuropeptides B/W receptor type 1 (Homo sapiens, UniProt P48145); assay: human NPBW1 receptor blockade, IC50 – cell-based, fluorescence, dose response, late-stage follow-up (AID 463251); type: functional
T3 sequence (P48145 whole entry): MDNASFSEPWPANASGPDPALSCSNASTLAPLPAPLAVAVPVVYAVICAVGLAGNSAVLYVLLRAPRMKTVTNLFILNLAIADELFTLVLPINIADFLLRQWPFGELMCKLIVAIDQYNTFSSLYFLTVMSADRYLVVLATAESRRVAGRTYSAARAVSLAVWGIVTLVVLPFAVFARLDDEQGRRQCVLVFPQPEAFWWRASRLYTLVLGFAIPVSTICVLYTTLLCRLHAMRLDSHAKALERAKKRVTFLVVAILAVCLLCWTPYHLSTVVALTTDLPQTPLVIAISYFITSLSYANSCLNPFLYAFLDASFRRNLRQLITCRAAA

[9] = target: Acylamino-acid-releasing enzyme (Homo sapiens, UniProt P13798); assay: endogenous PME-1 and serine hydrolase inhibition – cell lysate, mouse brain cytosol, FP-rhodamine, gel ABPP, selectivity assay for PME-1 inhibitor project, dose response, panel member APEH Assay Panel member description: Inhibition of N-acylaminoacyl-peptide hydrolase (APEH) (anti-target) (AID 2366)
[10] = target: T4, Heat shock factor protein 1 (Mus musculus, UniProt P38532); assay: decrease of HSF1-responsive luciferase luminescence – cell-based, NIH3T3, dose retest, confirmation (AID 2382); type: functional;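 further: NIH3T3 fibroblasts with HSF1-driven luciferase reporter stressed by proteasome inhibitor MG132; luminescence from HSF1-driven luciferase expression after 8 hours of MG132 stress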
T4 sequence (P38532 whole entry): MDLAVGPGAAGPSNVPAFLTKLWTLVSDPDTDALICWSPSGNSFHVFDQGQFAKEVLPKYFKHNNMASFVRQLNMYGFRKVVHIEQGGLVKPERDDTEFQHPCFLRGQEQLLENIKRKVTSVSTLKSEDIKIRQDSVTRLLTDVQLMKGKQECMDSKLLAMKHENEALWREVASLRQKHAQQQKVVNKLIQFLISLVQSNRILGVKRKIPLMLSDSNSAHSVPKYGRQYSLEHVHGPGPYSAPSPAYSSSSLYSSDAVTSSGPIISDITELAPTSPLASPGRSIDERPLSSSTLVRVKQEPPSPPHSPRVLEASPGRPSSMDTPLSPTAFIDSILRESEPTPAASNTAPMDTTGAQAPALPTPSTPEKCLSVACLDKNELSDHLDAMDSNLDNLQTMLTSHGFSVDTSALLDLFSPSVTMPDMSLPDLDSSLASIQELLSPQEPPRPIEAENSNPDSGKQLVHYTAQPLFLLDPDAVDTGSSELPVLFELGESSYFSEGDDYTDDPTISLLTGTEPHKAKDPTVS

[11] = target: T5, Caspase-7 (Homo sapiens, UniProt P55210); assay: activation of caspase-7 zymogen – biochemical, absorbance, counter-screen for procaspase-3 activator project, dose response (AID 489013)
T5 sequence (P55210 whole entry): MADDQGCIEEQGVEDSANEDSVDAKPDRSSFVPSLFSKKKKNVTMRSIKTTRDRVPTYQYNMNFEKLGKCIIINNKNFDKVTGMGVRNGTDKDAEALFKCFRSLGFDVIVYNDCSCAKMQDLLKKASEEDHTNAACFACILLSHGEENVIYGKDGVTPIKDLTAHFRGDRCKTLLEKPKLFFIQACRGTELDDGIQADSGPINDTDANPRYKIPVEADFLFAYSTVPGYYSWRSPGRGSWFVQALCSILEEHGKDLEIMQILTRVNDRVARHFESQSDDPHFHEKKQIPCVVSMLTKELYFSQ

[12] = target: T6, Caspase-3 (Homo sapiens, UniProt P42574); assay: activation of caspase-3 zymogen – biochemical, absorbance, dose response (AID 489014)
T6 sequence (P42574 whole entry): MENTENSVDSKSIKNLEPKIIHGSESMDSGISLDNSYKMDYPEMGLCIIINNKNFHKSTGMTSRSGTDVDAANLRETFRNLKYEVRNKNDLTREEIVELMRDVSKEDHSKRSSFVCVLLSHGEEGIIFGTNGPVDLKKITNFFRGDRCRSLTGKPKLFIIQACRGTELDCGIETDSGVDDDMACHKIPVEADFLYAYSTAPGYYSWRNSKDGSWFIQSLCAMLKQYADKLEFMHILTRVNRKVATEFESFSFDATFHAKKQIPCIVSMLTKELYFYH

[13] = Trypanosoma cruzi growth suppression in host cells – NIH3T3 host cells, beta-gal luminescence, confirmation (AID 2044); type: functional, cell-based;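 further: intracellular parasites grown in NIH/3T3 mouse fibroblasts as host cells; luminescent beta-galactosidase reporter signal from transgenic T. cruzi replicating inside host cells; inhibitors lower the luminescence signal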
[14] = cells; type: functional, cell-based
[15] = NIH3T3 cell viability loss – ATP luminescence, mouse fibroblasts, counter-screen, dose response (AID 2010); type: functional, cell-based;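 further: cells exposed to compound for about 90 hours before reading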
[16] = target: T7, Streptokinase A (Streptococcus pyogenes serotype M1, UniProt P10520); assay: viability-normalized secreted streptokinase activity reduction – plasminogen activation absorbance, OD405, dose response (AID 1914); type: functional, Streptococcus pyogenes M1 GAS;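 further: secreted streptokinase activity via plasminogen activation per viability signal from cell pellet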
T7 sequence (P10520 whole entry): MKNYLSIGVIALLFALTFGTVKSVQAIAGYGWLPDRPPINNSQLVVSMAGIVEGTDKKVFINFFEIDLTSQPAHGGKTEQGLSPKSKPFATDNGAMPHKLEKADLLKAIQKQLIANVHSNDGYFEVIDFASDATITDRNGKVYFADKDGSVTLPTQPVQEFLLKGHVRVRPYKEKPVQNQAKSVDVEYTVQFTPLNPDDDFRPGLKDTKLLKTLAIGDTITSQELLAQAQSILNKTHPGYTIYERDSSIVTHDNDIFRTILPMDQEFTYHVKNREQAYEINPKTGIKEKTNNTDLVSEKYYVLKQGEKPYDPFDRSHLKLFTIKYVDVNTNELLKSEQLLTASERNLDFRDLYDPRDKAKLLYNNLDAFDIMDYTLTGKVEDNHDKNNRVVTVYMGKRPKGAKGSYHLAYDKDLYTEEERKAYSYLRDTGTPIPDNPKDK

[17] = test system: Streptococcus sp. 'group A'; assay: Streptococcus pyogenes SK(-)GAS viability under kanamycin – luminescence, BacTiterGlo, confirmation, counter-screen for streptokinase expression inhibitor project, dose response (AID 1900); type: functional, organism-based
[18] = test system: Streptococcus; assay: GAS UMAA2166 growth inhibition – luminescence, BacTiterGlo, counter-screen for streptokinase expression inhibitor project, dose response (AID 1915); type: functional, organism-based;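 further: potency for reduction of bacterial viability or growth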
[19] = cells; type: functional, cell-based; remark: listed apart in the source
[20] = cells
[21] = target: E3 ubiquitin-protein ligase Mdm2 (Homo sapiens, UniProt Q00987); assay: MDM2-luc reporter signal enhancers, multi-concentration potency testing, MDM2 ubiquitin-protein ligase inhibitor program, whole-cell format, luminescence detection, 384-well microplate (AID 1394); type: functional;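 further: MDM2 E3 inhibitors raise luminescence so EC50 is for signal enhancement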
[22] = target: T8, Kappa-type opioid receptor (Homo sapiens, UniProt P41145); type: functional
[23] = target: T8, Kappa-type opioid receptor; type: functional; remark: listed apart in the source
[24] = target: Beta-galactosidase (Escherichia coli, UniProt Q8VNN2); type: functional
Sequence of Beta-galactosidase (Q8VNN2 whole entry): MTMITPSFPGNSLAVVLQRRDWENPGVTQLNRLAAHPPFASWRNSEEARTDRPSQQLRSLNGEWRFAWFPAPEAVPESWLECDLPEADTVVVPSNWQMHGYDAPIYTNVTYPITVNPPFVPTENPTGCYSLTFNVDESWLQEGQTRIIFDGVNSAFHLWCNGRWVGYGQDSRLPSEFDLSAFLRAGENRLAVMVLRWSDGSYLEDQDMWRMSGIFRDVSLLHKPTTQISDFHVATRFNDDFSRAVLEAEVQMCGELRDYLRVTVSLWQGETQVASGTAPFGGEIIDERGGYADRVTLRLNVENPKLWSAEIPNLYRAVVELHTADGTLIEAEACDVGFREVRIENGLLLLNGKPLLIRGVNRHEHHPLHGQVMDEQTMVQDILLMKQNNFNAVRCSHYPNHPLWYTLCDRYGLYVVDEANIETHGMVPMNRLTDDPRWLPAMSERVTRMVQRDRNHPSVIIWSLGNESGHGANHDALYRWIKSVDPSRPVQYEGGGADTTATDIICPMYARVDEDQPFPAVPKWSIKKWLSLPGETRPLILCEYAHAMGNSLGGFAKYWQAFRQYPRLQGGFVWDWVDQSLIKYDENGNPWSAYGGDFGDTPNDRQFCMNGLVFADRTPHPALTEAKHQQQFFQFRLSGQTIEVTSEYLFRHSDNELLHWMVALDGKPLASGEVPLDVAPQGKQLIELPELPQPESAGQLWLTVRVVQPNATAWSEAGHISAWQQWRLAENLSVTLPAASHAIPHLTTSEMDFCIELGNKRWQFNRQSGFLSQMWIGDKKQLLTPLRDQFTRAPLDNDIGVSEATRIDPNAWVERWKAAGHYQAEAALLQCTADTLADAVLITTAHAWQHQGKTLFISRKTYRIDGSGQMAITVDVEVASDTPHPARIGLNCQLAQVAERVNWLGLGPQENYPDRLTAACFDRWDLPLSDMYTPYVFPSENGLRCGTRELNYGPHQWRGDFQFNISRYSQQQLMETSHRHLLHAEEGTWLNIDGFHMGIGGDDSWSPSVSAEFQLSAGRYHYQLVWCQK

T8 sequence (P41145 whole entry): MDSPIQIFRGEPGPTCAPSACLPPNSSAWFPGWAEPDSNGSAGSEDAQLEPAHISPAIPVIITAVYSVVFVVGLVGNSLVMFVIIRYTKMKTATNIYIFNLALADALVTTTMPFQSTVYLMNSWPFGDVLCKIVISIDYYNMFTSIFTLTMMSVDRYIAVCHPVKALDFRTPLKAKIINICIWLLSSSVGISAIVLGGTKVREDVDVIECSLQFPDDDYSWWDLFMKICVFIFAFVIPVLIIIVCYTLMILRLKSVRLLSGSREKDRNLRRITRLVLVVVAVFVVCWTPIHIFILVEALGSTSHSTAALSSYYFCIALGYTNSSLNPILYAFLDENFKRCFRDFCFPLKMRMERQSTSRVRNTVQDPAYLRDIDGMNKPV
Sequence of Acylamino-acid-releasing enzyme (P13798 whole entry): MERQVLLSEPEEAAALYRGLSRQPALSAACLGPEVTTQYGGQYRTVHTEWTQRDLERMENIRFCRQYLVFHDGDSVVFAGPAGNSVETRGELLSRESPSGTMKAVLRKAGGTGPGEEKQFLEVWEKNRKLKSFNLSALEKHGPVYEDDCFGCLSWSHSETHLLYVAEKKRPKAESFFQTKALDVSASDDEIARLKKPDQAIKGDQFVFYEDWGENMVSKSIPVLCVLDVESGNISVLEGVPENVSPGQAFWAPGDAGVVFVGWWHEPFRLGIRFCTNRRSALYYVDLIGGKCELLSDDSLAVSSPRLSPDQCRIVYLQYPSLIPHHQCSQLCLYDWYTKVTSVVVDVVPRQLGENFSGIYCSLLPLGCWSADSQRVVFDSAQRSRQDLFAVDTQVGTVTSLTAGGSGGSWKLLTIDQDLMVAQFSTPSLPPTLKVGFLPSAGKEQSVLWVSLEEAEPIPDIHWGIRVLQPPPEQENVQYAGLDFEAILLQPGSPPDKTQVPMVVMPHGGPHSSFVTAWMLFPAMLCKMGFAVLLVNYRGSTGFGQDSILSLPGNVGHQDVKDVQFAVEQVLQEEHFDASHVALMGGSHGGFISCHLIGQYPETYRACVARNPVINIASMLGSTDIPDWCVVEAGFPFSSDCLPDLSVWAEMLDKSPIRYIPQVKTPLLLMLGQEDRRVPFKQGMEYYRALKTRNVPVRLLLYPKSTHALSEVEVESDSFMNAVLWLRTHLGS
Sequence of G-protein coupled receptor 55 (Q9Y2T6 whole entry): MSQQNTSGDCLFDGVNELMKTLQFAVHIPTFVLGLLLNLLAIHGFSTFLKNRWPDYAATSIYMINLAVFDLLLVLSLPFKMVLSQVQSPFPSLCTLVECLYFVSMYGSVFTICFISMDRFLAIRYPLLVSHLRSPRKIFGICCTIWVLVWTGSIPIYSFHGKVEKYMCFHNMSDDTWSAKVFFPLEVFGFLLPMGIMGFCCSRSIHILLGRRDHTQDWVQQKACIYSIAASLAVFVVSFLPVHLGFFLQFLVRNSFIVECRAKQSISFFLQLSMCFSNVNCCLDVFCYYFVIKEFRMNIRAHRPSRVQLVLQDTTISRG
Sequence of E3 ubiquitin-protein ligase Mdm2 (Q00987 whole entry): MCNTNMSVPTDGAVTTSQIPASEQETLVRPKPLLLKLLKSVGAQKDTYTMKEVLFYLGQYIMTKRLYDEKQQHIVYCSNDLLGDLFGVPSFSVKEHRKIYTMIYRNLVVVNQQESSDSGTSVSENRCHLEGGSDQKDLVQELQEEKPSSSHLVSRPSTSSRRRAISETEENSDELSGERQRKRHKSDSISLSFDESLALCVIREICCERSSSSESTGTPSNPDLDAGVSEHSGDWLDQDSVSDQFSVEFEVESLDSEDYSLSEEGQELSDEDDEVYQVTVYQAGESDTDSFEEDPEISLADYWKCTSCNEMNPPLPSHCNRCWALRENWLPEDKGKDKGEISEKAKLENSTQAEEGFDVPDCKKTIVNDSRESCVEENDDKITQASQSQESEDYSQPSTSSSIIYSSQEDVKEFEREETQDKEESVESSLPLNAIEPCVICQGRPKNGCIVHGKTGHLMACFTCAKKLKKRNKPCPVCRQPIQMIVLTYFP
Sequence of Melanin-concentrating hormone receptor 1 (Q99705 whole entry): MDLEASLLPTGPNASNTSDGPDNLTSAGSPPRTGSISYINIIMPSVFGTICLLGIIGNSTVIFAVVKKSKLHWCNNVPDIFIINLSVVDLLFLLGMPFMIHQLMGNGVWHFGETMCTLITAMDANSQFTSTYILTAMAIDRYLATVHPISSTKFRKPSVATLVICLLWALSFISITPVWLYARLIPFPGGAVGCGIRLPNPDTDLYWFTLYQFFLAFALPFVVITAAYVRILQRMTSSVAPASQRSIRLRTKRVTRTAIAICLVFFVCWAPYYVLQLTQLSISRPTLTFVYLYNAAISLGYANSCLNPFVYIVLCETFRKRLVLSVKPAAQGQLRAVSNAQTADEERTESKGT
Sequence of Trypsin (P00761 whole entry): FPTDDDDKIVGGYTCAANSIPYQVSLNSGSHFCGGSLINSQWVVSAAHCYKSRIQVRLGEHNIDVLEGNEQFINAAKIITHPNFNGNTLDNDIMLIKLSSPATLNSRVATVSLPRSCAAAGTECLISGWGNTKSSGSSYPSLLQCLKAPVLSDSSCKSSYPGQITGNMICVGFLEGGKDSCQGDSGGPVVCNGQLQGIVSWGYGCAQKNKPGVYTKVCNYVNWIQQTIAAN

Cc1ccc(C)c(-c2ccc(=O)n(Cc3cccc(Br)c3)n2)c1
EC50 [1]: 3.48 µM (active) | AC50 [2]: 4.88 µM (active) | EC50 [3]: 24.1 µM (active)

COc1ccc(Cl)cc1Nc1nc(C)nc2c1oc1ccccc12
AC50 [4]: 14.4 µM (active)

Cc1ccc(C)c(CN2C(=O)c3ccccc3[S+]([O-])c3ccc(C(=O)N4CCN(c5ccccn5)CC4)cc32)c1 (stereo not drawn)
CC50 [5]: 13.7 µM (active) | EC50 [1]: 1.32 µM (active) | IC50 [6]: 2.51 µM (active)

CS(=O)(=O)/C(C#N)=C/c1cccn1S(=O)(=O)c1ccc([N+](=O)[O-])cc1
IC50 [9]: > 50 µM (inactive)

O=C(C1CCCCN1Cc1ccc2ccccc2c1)N1CCN(c2ccc([N+](=O)[O-])cc2)CC1 (stereo not drawn)
IC50 [7]: 3.1 µM (active) | IC50 [8]: 4.1 µM (active)

N#C/C(=C\c1cccn1S(=O)(=O)c1ccccc1)S(=O)(=O)c1ccc(F)cc1
IC50 [9]: > 50 µM (inactive)

Cc1c(Cc2ccccc2)sc(/N=C/c2c(O)ccc3ccccc23)c1C(N)=O
EC50 [10]: > 195 µM (not active) | EC50 [11]: > 85.3 µM (inactive) | EC50 [12]: > 85.3 µM (inactive)

c1ccc(CSC2=NNC(c3ccccn3)S2)cc1 (stereo not drawn)
EC50 [13]: < 0.1 µM (active) | EC50 [14]: 66.9 µM (active) | EC50 [15]: > 60 µM (not active) | EC50 [16]: > 150 µM (not active) | EC50 [17]: 0.799 µM (active) | EC50 [18]: > 150 µM (not active) | EC50 [19]: > 350 µM (not active) | EC50 [20]: 1.73 µM (active) | EC50 [21]: 12.4 µM (not active) | IC50 [22]: > 32 µM | IC50 [23]: > 31.5 µM (inactive) | EC50 [24]: > 31.5 µM (inactive)
